Measured values taken from patent US9394284B2, “Compounds act at multiple prostaglandin receptors giving a general anti-inflammatory response” (Allergan, Inc., priority 2010, dated 2016).

Experiments:
Assay type in all cases: cell-based
[1] = target: T1, human prostanoid TP receptor (Homo sapiens, UniProt P21731); test: FLIPR Ca2+ signaling antagonist assay, TP receptor stable cell line; details: HEK-293 EBNA stable cell line; standard agonist U-46619; NA = inactive (no antagonism or Kb 10,000 nM); PAg, Ag not defined
T1 construct: expressed in transfected cells
T1 sequence (P21731 1-343): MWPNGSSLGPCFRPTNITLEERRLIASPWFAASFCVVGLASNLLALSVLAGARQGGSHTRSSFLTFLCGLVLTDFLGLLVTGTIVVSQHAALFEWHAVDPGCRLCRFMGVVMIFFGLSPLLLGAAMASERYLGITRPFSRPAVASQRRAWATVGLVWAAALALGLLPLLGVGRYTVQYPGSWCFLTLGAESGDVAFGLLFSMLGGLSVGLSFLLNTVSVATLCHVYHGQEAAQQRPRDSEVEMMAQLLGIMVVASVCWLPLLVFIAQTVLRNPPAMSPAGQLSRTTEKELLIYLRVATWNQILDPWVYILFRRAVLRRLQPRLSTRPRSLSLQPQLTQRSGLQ
Summary of the method: (§1)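 HEK-293 EBNA cells stably expressing receptor (EP3 co-expressed with chimeric Gqi; EP1, IP, TP without exogenous G protein), Fluo-4 loaded, read on FLIPR at 37° C. Antagonist added 4.5 min before standard agonist (EP1/EP3 PGE2, IP cicaprost 10^−11–10^−5 M; TP U-46619 10^−12–10^−6 M); antagonist 0.1–30 μM, TP 0.067–1 μM; peak fluorescence relative to 10^−6 M agonist.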

[2] = target: T2, human prostanoid DP1 receptor (Homo sapiens, UniProt Q13258); test: FLIPR Ca2+ signaling antagonist assay, DP1 receptor stable cell line; details: HEK-293 EBNA stable cell line; standard agonist BW 245C; NA = inactive (no antagonism or Kb 10,000 nM); PAg, Ag not defined
T2 construct: expressed in transfected cells
T2 sequence (Q13258 1-359): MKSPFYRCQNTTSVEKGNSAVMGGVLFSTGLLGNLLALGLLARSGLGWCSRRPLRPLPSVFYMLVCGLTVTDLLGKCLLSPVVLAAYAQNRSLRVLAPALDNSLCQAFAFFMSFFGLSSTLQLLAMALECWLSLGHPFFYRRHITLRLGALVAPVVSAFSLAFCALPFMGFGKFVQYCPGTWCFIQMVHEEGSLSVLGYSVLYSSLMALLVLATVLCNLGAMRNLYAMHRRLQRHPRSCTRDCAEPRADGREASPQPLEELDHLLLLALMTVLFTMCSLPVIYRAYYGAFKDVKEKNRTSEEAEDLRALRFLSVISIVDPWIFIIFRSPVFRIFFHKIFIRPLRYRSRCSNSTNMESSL
Summary of the method: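 Functional antagonism measured by Ca2+ flux at 37 °C. Agonist ranges were 10^−11 to 10^−5 M, or 10^−12 to 10^−6 M for TP with U-46619; PGE2 for EP1/EP3, BW 245C for DP1. Compound spanned 0.1–30 μM except TP, 0.067–1 μM.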

[3] = target: T3, human prostanoid FP receptor (Homo sapiens, UniProt P43088); test: FLIPR Ca2+ signaling antagonist assay, FP receptor stable cell line; details: HEK-293 EBNA stable cell line; standard agonist 17-phenyl-PGF2α; NA = inactive (no antagonism or Kb 10,000 nM); PAg, Ag not defined
T3 construct: expressed in transfected cells
T3 sequence (P43088 whole entry): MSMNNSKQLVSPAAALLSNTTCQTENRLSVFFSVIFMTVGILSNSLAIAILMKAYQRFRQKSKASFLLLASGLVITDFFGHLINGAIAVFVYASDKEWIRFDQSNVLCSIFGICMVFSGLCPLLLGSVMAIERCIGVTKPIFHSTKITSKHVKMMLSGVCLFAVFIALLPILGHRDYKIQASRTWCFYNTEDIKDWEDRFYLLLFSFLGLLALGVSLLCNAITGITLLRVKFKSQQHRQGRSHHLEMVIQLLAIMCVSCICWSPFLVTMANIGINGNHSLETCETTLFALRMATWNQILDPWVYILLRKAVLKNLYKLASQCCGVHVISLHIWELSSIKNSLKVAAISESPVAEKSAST
Summary of the method: (§2)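 Peak Fluo-4 fluorescence (ex 470–495, em 515–575 nm) was read for 3.5 min on FLIPR after agonist injection and expressed relative to 10^−6 M standard agonist. Cells were HEK-293 EBNA transfectants. Test compound was added 4.5 min beforehand at 0.1–30 μM, or 0.067–1 μM for TP.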

[4] = target: T4, human prostanoid EP1 receptor (Homo sapiens, UniProt P34995); test: FLIPR Ca2+ signaling antagonist assay, EP1 receptor stable cell line; details: HEK-293 EBNA stable cell line; standard agonist PGE2; NA = inactive (no antagonism or Kb 10,000 nM); PAg, Ag not defined
T4 construct: expressed in transfected cells
T4 sequence (P34995 1-402): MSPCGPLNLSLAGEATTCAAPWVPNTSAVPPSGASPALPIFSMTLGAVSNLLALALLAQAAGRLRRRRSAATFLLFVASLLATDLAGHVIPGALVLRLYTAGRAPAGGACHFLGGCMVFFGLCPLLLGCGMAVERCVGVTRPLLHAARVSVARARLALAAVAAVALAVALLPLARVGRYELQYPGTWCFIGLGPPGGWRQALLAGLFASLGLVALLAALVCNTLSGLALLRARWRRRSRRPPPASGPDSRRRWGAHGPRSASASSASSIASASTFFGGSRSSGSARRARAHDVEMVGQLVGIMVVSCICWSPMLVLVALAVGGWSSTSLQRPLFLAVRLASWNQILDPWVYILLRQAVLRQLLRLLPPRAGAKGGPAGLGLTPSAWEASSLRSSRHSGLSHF
Summary of the method: as §1

[5] = target: T5, human prostanoid IP receptor (Homo sapiens, UniProt P43119); test: FLIPR Ca2+ signaling antagonist assay, IP receptor stable cell line; details: HEK-293 EBNA stable cell line; standard agonist Cicaprost; NA = inactive (no antagonism or Kb 10,000 nM); PAg, Ag not defined
T5 construct: expressed in transfected cells
T5 sequence (P43119 whole entry): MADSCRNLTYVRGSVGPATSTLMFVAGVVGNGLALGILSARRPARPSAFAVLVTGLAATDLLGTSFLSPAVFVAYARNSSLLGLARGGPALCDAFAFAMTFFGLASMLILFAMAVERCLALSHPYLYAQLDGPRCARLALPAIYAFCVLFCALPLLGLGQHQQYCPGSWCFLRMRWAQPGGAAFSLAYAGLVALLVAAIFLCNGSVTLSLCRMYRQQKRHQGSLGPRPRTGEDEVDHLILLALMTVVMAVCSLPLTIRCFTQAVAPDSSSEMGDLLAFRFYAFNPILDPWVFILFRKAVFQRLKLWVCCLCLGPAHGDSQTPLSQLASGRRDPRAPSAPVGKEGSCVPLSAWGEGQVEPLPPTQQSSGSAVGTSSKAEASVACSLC
Experimental: (§3) The above compounds were tested for PG antagonist activity as follows using human recombinant prostanoid receptor (DP1, EP1-4, FP, IP and TP) stable cell lines:
(§4) In order to measure the response of Gs and Gi coupled prostanoid receptors as a Ca^2+ signal, chimeric G protein cDNAs were used. Stable cell lines over-expressing human prostanoid DP1, EP1-4, FP, IP, and TP receptors were established as follows:
(§5) Briefly, human prostanoid DP1, EP2, and EP4 receptor cDNAs were co-transfected with chimeric Gqs cDNA containing a haemagglutanin (HA) epitope; human prostanoid EP3 receptors were co-transfected with chimeric Gqi-HA; human EP1, FP, IP, and TP receptor cDNAs were expressed with no exogenous G-proteins. Gqs and Gqi chimeric cDNAs (Molecular Devices, Sunnyvale, Calif., U.S.A.), as well as cDNAs of prostanoid receptors, were cloned into a pCEP4 vector with a hygromycin B selection marker. Transfection into HEK-293 EBNA (Epstein-Barr virus nuclear antigen) cells was achieved by the FuGENE 6 transfection Reagent (Roche Applied Science, Indianapolis, Ind., USA). Stable transfectants were selected according to hygromycin resistance. Because Gqs and Gqi contained an HA epitope, G-protein expression was detected by Western blotting analysis using anti-mouse HA monoclonal antibody and horseradish peroxidase (HRP)-conjugated secondary antibody, while functional expression of prostanoid receptors was detected by FLIPR screening (Matias et al., 2004). These stable cell lines were validated using previously published antagonists at 10 μM against serial dilutions of standard agonists by FLIPR functional assays for Ca^2+ Signaling (as described below).
(§6) Ca^2+ signaling studies were performed using a FLIPR TETRA system (Molecular Devices, Sunnyvale, Calif., USA) in the 384-format. This is a high-throughput instrument for cell-based assays to monitor Ca^2+ signaling associated with GPCRs and ion channels. Cells were seeded at a density of 5×10^4 cells/well in BioCoat poly-D-lysine coated, black wall, clear bottom 384-well plates (BD Biosciences, Franklin lakes, NJ, USA) and allowed to attach overnight in an incubator at 37° C. The cells were then washed twice with HBSS-HEPES buffer (Hanks' balanced salt solution without bicarbonate and phenol red, 20 mM HEPES, pH 7.4) using an ELx405 Select CW Microplate Washer (BioTek, Winooski, Vt., USA). After 60 min of dye-loading in the dark using the Ca^2+-sensitive dye Fluo-4AM (Invitrogen, Carlsbad, Calif., USA), at a final concentration of 2×10^−6M, the plates were washed 4 times with HBSS-HEPES buffer to remove excess dye and leaving 50 μl of buffer in each well. The plates were then placed in the FLIPR TETRA instrument and allowed to equilibrate at 37° C. AGN-211377 was added in a 25 μl volume to each well to give final concentrations of 0.1 μM, 0.3 μM, 1 μM, 3 μM, 10 μM, and 30 μM; or 0.067 μM, 0.1 μM, 0.2 μM, 0.3 μM, 0.67 μM, and 1 μM for cells over-expressing TP receptors. After 4.5 minutes, a 7-point serial dilution of the standard agonist for the corresponding receptor, in a 25 μl volume was injected at the final concentrations from 10^−11M to 10^−5M in 10-fold serial dilution increments for cells expressing human recombinant DP1, EP1, EP2, EP3, EP4, FP, and IP receptors. The dose range for the standard agonist for human recombinant TP receptors was from 10^−12 M to 10^−6 M. HBSS-HEPES buffer was used as the negative control for the standard agonists. Cells were excited with LED (light emitting diode) excitation at 470-495 nm and emission was measured through an emission filter at 515-575 nm. Assay plates were read for 3.5 minutes using the FLIPR^TETRA. The peak increase in fluorescence intensity was recorded for each well. On each plate, negative controls, dose response of positive controls, and co-treatments of antagonist-agonist for each dose were in triplicates.
(§7) Standard agonists were as follows: DP=BW 245C, EP1-EP4=PGE2, FP=17-phenyl-PGF2α, IP=Cicaprost, and TP=U-46619. […]

[6] = target: T6, human prostanoid EP4 receptor (Homo sapiens, UniProt P35408); test: FLIPR Ca2+ signaling antagonist assay, EP4 receptor stable cell line; details: HEK-293 EBNA stable cell line; standard agonist PGE2; NA = inactive (no antagonism or Kb 10,000 nM); PAg, Ag not defined
T6 construct: expressed in transfected cells
T6 sequence (P35408 whole entry): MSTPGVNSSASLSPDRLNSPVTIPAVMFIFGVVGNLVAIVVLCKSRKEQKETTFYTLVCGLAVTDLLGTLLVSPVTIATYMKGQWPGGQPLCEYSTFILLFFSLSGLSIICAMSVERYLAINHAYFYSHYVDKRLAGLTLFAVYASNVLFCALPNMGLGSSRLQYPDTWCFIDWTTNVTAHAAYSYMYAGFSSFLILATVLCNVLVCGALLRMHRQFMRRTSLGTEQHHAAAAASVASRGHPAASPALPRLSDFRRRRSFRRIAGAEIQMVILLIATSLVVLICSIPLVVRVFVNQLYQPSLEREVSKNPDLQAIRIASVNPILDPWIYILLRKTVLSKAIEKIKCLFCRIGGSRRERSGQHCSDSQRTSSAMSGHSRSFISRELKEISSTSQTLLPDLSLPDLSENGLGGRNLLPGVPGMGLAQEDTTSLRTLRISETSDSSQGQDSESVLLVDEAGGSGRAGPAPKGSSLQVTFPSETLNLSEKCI
Summary of the method: as §2

[7] = target: T7, human prostanoid EP2 receptor (Homo sapiens, UniProt P43116); test: FLIPR Ca2+ signaling antagonist assay, EP2 receptor stable cell line; details: HEK-293 EBNA stable cell line; standard agonist PGE2; NA = inactive (no antagonism or Kb 10,000 nM); PAg, Ag not defined
T7 construct: expressed in transfected cells
T7 sequence (P43116 whole entry): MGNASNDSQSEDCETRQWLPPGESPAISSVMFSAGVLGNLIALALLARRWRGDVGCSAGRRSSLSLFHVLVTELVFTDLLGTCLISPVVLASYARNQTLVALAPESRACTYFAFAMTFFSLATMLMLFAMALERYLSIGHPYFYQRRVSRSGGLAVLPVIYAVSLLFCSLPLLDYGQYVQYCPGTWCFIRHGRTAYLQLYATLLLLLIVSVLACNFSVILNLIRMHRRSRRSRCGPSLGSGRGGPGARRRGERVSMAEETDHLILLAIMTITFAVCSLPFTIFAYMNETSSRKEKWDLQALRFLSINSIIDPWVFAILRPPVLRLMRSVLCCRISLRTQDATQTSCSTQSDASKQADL
Experimental: as §3, §4, §5, §6, §7

SMILES	Kb [1] [nM]	Kb [2] [nM]	Kb [3] [nM]	Kb [4] [nM]	Kb [5] [nM]	Kb [6] [nM]	Kb [7] [nM]	DP1 (FLIPR) Kb [2]	TP (FLIPR) Kb [1]	IP (FLIPR) Kb [5]	EP4 (FLIPR) Kb [6]	EP2 (FLIPR) Kb [7]	EP1 (FLIPR) Kb [4]
Cc1cc(CCC(=O)O)nn1Cc1cc(Br)ccc1OCC1CCC1 [Example 12, 3-[1-(5-Bromo-2-(2-cyclobutylmethoxy)-benzyl)-5-methyl-1H-pyrazol-3-yl]-propionic acid]	30	110	30	30	3600	500	1700						
Cc1cc(CCC(=O)O)nn1Cc1cc(Cl)ccc1OCCC(C)C [Example 21, 3-[1-(5-Chloro-2-(3-methylbutoxy)benzyl)-5-methyl-1H-pyrazol-3-yl]-propionic acid]	30		225	350	5530	1000	8200	PAg					
Cc1cc(CCC(=O)O)nn1Cc1cc(Cl)ccc1OC(CC(C)C)CC(C)C [Example 23, 3-[1-(5-Chloro-2-(1-isobutyl-3-methylbutoxy)benzyl)-5-methyl-1H-pyrazol-3-yl]-propionic acid]		160		1500					Ag	Ag	Ag	PAg	
COc1ccc(COc2ccc(Cl)cc2Cn2nc(CCC(=O)O)cc2C)cc1 [Example 31, 3-[1-(5-Chloro-2-(4-methoxybenzyloxy)benzyl)-5-methyl-1H-pyrazol-3-yl]-propionic acid]	9	300	200	300	1200	7400	2500						
Cc1cc(CCC(=O)O)nn1Cc1cc(Cl)ccc1OCCCCC(C)C [Example 36, 3-[1-(5-Chloro-2-(5-methylhexyloxy)benzyl)-5-methyl-1H-pyrazol-3-yl]-propionic acid]			170					PAg	Ag	Ag	Ag	PAg	Ag
Cc1cc(CCC(=O)O)nn1Cc1cc(Cl)ccc1OCCC1CCCC1 [Example 39, 3-[1-(5-Chloro-2-(2-cyclopentylethoxy)benzyl)-5-methyl-1H-pyrazol-3-yl]-propionic acid]			300					PAg	PAg	PAg	PAg	PAg	PAg
Cc1cc(CCCCC(=O)O)nn1Cc1cc(Cl)ccc1OCC1CCCC1 [Example 41, 5-[1-(5-Chloro-2-cyclopentylmethoxybenzyl)-5-methyl-1H-pyrazol-3-yl]-pentanoic acid]	30		200	350	5500	1000	8200	PAg					
CCC(CC)COc1ccc(OC(F)(F)F)cc1Cn1nc(CCC(=O)O)cc1C [Example 48, 3-[1-[2-(2-Ethyl-butoxy)-5-trifluoromethoxy-benzyl]-5-methyl-1H-pyrazol-3-yl]-propionic acid]	40		150	80	2300	400	3000	PAg					
